Entries after “also recorded” stand apart in the source; their conditions may differ. Where two headings read alike, the source gives them in different places.
Experiments:
[1] = target: T1, glycerol-3-phosphate dehydrogenase (GPDH) (Rattus norvegicus, UniProt P35571); experiment: High-throughput screen: ROS production from glycerol-3-phosphate dehydrogenase (GPDH); assay type: biochemical; design: inhibition: dose or concentration left out as unconfirmed; details: for GPDH / inhibition: percent change in ROS from DMSO controls; for inhibition at 2.5 µM: Table 6, 25 mM glycerol phosphate, rotenone, antimycin A, malonate, myxothiazol, compounds 2.5 μM, scaled to IQ positive controls, read-out: % Reduction in ROS Production (GPDH)
T1 construct: The activity of GPDH in intact mitochondria (0.3 mg/mL) was measured; from tissue; host or cells: rat skeletal muscle mitochondria (Wistar, Harlan Laboratories)
T1 sequence (P35571 43-727): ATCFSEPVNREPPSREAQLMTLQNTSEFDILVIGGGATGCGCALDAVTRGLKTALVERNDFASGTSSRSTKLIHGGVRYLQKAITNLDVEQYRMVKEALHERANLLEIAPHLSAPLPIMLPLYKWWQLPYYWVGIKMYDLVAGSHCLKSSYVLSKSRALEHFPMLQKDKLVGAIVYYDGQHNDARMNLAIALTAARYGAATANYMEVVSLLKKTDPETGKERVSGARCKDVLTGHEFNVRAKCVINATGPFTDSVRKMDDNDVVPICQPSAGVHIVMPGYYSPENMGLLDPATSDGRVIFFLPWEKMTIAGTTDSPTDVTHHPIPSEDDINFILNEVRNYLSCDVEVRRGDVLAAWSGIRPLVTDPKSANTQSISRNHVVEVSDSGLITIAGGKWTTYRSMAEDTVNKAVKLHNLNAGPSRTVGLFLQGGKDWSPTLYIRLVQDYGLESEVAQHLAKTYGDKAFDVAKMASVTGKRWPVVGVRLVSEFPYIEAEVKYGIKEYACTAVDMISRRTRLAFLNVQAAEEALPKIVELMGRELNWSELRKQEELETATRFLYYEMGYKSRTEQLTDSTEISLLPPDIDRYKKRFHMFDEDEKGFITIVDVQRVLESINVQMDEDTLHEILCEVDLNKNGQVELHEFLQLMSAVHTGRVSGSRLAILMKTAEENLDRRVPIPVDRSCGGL
Description: (§1) Skeletal muscle mitochondria were isolated from 5-8 week old female Wistar rats (Harlan Laboratories). Minced muscle was homogenized in buffer containing bacterial protease Type VIII prior to differential centrifugation to separate mitochondria from other tissue components. Unless otherwise stated, freshly isolated muscle mitochondria were assayed in buffer containing 120 mM KCl, 5 mM HEPES, 1 mM EGTA, 0.3% (w/v) bovine serum albumin. Where indicated, CaCl2 was added to yield a final free concentration of 250 nM calcium at pH 7.0 at 37° C.
Compounds (10 mM in DMSO) were randomly selected from a library of 24,000 compounds obtained from ChemBridge and curated by the lab of Robert Hughes at the Buck Institute. Master screening plates were prepared using a Biomek FX liquid handling workstation (Beckman) to transfer 1 μL of each compound into individual wells on 96-well storage plates (80 compounds per plate). Master plates were sealed with foil and stored at −80° C. Just prior to use, plates were brought to room temperature and diluted 300-fold with standard buffer (13.3X=33.3 μM). To monitor the performance of each assay throughout screening and to provide intra-plate normalization reference points, DMSO negative controls and known mitochondrial inhibitor positive controls were included on each Master compound plate.
(§2) Total amounts of superoxide and H2O2 production were determined fluorometrically as H2O2, without distinguishing between them, in the presence of exogenous superoxide dismutase (25 units/mL final), horseradish peroxidase (1 unit/mL final), and Amplex UltraRed (25 μM final) as described (Affourtit, C. et al. (2012) Measurement of proton leak and electron leak in isolated mitochondria. Methods Mol. Biol. 810: 165-82). Just prior to use, a bulk 3.3X solution was made in standard buffer and distributed into a 2 mL deep well 96-well transfer plate.
To assess the effects of a compound on ROS production from glycerol-3-phosphate dehydrogenase (GPDH), Start Solution containing 25 mM glycerol phosphate, 4 μM rotenone, 2.5 μM antimycin A, 1 mM malonate, 2 μM myxothiazol was distributed into standard 96-well transfer plates. A Biomek FX workstation was programmed to dispense solutions into black 96-well assay plates. Solutions were dispensed to all assay plates in the following order: ROS Detection solution described in Example 3, Mitochondria solution described in Example 1 to a final concentration of 0.2 mg/ml, and Compound dilutions described in Example 2. Duplicate assay plates were made and each was initiated by the addition of 3.3X Start solution containing 25 mM glycerol phosphate, 4 μM rotenone, 2.5 μM antimycin A, 1 mM malonate, 2 μM myxothiazol. Plates were incubated in the dark at room temperature for 30-40 minutes before acquiring endpoint fluorescence using a Victor 3V plate reader (Perkin Elmer) equipped with 550/590 nm excitation/emission filters.
The fluorescence values in each well were scaled as the percent change from the intra-plate DMSO controls. […] Following initial scaling, intra-plate normalized values were subjected to Tukey's two-way median polish to remove row and column dependent positional effects (Malo et al., 2006).

[2] = test system: mitochondrial membrane potential (ΔΨm); experiment: Membrane potential (ΔΨm) counterscreen with TMRM; details: malate, nigericin
[3] = target: T2, flavin binding site of complex I (IF) (Rattus norvegicus, UniProt Q5XIH3); experiment: High-throughput screen: ROS production from flavin binding site of complex I (IF); assay type: biochemical
T2 construct: freshly isolated muscle mitochondria were assayed; from tissue; host or cells: rat skeletal muscle mitochondria (Wistar, Harlan Laboratories)
Description: as §1
Master screening plates were prepared using a Biomek FX liquid handling workstation (Beckman) to transfer 1 μL of each compound into individual wells on 96-well storage plates (80 compounds per plate). […] Just prior to use, plates were brought to room temperature and diluted 300-fold with standard buffer (13.3X=33.3 μM). To monitor the performance of each assay throughout screening and to provide intra-plate normalization reference points, DMSO negative controls and known mitochondrial inhibitor positive controls were included on each Master compound plate.
as §2
To assess the effects of a compound on ROS production from the flavin binding site of complex I (IF), Start Solution containing 5 mM glutamate, 5 mM malate and 4 μM rotenone was distributed into standard 96-well transfer plates. A Biomek FX workstation was programmed to dispense solutions into black 96-well assay plates. Solutions were dispensed to all assay plates in the following order: ROS Detection solution described in Example 3, Mitochondria solution described in Example 1 to a final concentration of 0.3 mg/ml, and Compound dilutions described in Example 2. Duplicate assay plates were made and each was initiated by the addition of 3.3X Start solution containing 5 mM glutamate, 5 mM malate and 4 μM rotenone. Plates were incubated in the dark at room temperature for 30-40 minutes before acquiring endpoint fluorescence using a Victor 3V plate reader (Perkin Elmer) equipped with 550/590 nm excitation/emission filters.
The fluorescence values in each well were scaled as the percent change from the intra-plate DMSO controls with the appropriate inhibitor positive controls defined as −100%. Following initial scaling, intra-plate normalized values were subjected to Tukey's two-way median polish to remove row and column dependent positional effects (Malo, N. et al. (2006) Statistical practice in high-throughput screening data analysis. Nat. Biotechnol. 24(2): 167-75).

[4] = test system: ubiquinone binding site of complex I (IQ); experiment: High-throughput screen: ROS production from ubiquinone binding site of complex I (IQ), isolated skeletal muscle mitochondria; assay type: biochemical, rat; details: for IQ: percent change in ROS from DMSO controls
[5] = target: T3, succinate dehydrogenase/complex II (SDH) (Rattus norvegicus, UniProt P21913+Q641Z9+Q6PCT8+Q920L2); experiment: High-throughput screen: ROS production from succinate dehydrogenase/complex II (SDH); assay type: biochemical; details: percent change in ROS from DMSO controls
T3 construct: freshly isolated muscle mitochondria were assayed; from tissue; host or cells: rat skeletal muscle mitochondria (Wistar, Harlan Laboratories)
Description: as §1
Just prior to use, plates were brought to room temperature and diluted 300-fold with standard buffer (13.3X=33.3 μM). To monitor the performance of each assay throughout screening and to provide intra-plate normalization reference points, DMSO negative controls and known mitochondrial inhibitor positive controls were included on each Master compound plate.
as §2
To assess the effects of a compound on ROS production from succinate dehydrogenase/complex II (SDH), Start Solution containing 15 μM palmitoyl carnitine, 2.5 μM antimycin A and 2 μM myxothiazol was distributed into standard 96-well transfer plates. A Biomek FX workstation was programmed to dispense solutions into black 96-well assay plates. Solutions were dispensed to all assay plates in the following order: ROS Detection solution described in Example 3, Mitochondria solution described in Example 1 to a final concentration of 0.3 mg/ml, and Compound dilutions described in Example 2. Duplicate assay plates were made and each was initiated by the addition of 3.3X Start solution containing 15 μM palmitoyl carnitine, 2.5 μM antimycin A and 2 μM myxothiazol. Plates were incubated in the dark at room temperature for 30-40 minutes before acquiring endpoint fluorescence using a Victor 3V plate reader (Perkin Elmer) equipped with 550/590 nm excitation/emission filters.
The fluorescence values in each well were scaled as the percent change from the intra-plate DMSO controls with the appropriate inhibitor positive controls defined as −100%. Following initial scaling, intra-plate normalized values were subjected to Tukey's two-way median polish to remove row and column dependent positional effects (Malo et al., 2006).

[6] = target: T4, outer ubiquinone binding site of complex III (IIIQO) (Rattus norvegicus, UniProt P00159+P20788); experiment: High-throughput screen: ROS production from outer ubiquinone binding site of complex III (IIIQO); assay type: biochemical
T4 construct: freshly isolated muscle mitochondria were assayed; from tissue; host or cells: rat skeletal muscle mitochondria (Wistar, Harlan Laboratories)

[7] = test system: mitochondrial membrane potential (ΔΨm); experiment: Retest ΔΨm assays (different substrates, with and without nigericin); assay type: biochemical, rat; details: various substrates
Description: The five core ROS assays and single ΔΨm assay were carried out as in the initial high-throughput screen. In addition, several assays were included to help validate the specificity of the compounds for a given site of production. […] The use of different substrates was designed to reveal compounds that disrupt mitochondrial function in a substrate specific manner. […] Most frequently, these changes involved the use of different substrates to supply electrons from an alternative entry point in the chain. If a site of ROS production is being targeted selectively by a compound, then in many cases the supply of electrons should not influence the effectiveness of this compound at suppressing ROS production. […] Candidate compounds that remained site-selective following robotics assisted retesting were subsequently tested for effects on ROS production and ΔΨm with a Varian Cary Eclipse fluorimeter (excitation 550 nm, emission at 590 nm). This experimental format allows kinetic measurements of ROS production and ΔΨm with more accurate temperature control, sample stirring, and background correction. […] Conditions were generally as described for the various microplate assays with the following exceptions: HRP was increased to 5 units/mL, Amplex UltraRed was increased to 50 μM, temperature was always 37° C., samples were continuously stirred, and baseline rates of fluorescence change in the absence of substrate were acquired prior to their addition. Example protocols for cuvette based measurement of site IQ and site IIIQo ROS production are described in Affourtit et al., 2012. […] Biochim. Biophys. Acta. 1777(5): 397-403. An additional advantage of the kinetic cuvette based assays was the ability to perform inline additions to monitor the relative effect of a test compound against multiple conditions in the same cuvette. Therefore, the selectivity of a compound for one site of ROS production can be monitored by adding substrates and select known inhibitors in defined sequences to alternately provide and trap electrons at various sites in the chain. […]

[8] = Table 7, percent change in ROS from DMSO controls
[9] = Table 8, percent change in ROS from DMSO controls
[10] = Table 9, percent change in ROS from DMSO controls
[11] = Table 3, 5 mM glutamate, 5 mM malate, 4 μM rotenone, compounds 2.5 μM, percent change from DMSO, positive control −100%, read-out: % Reduction in ROS production (IF)
[12] = Table 7, percent change in ROS from DMSO controls, read-out: IF
[13] = Table 7, percent change in ROS from DMSO controls, read-out: IIIQO
[14] = Table 9, percent change in ROS from DMSO controls, read-out: IIIQo
[15] = Table 4, 5 mM succinate, 4 μM rotenone, 2.5 μM antimycin A, compounds 2.5 μM, percent change from DMSO, read-out: % Reduction in ROS production (IIIQO)

T3 sequence (Q920L2 35-656): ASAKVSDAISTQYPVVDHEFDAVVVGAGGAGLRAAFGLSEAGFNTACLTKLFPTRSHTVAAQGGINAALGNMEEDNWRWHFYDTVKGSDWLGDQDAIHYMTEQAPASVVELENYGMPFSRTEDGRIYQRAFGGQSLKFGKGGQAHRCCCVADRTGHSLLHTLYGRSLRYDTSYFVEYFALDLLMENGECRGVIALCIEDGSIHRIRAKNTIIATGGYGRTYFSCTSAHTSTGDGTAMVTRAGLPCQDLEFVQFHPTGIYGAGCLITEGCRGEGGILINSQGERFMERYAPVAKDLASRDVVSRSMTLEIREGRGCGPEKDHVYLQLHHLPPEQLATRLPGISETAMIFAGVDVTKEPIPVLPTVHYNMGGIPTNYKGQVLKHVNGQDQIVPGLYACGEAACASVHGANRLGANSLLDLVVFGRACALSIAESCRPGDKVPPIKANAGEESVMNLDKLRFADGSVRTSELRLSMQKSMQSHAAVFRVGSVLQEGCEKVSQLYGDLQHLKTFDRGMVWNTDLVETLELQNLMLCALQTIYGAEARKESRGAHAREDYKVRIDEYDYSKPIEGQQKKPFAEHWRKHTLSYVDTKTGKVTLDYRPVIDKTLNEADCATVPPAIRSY
T3 sequence (P21913 31-282): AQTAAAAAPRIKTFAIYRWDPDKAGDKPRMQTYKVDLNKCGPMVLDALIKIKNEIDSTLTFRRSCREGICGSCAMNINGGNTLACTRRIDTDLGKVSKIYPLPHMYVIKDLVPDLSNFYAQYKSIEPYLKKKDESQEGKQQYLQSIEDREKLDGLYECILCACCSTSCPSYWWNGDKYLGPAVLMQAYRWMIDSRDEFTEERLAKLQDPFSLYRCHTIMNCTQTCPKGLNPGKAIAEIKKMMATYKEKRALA
T3 sequence (Q641Z9 30-169 limits assumed): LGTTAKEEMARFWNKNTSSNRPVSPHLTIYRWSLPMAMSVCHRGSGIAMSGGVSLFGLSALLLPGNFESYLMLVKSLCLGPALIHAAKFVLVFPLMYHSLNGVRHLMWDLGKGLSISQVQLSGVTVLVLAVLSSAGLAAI
T3 sequence (Q6PCT8 57-159): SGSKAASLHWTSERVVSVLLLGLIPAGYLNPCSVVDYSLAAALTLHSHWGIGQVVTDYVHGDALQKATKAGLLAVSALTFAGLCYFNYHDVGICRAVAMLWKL
T2 sequence (Q5XIH3 21-464 limits assumed, one chain of several): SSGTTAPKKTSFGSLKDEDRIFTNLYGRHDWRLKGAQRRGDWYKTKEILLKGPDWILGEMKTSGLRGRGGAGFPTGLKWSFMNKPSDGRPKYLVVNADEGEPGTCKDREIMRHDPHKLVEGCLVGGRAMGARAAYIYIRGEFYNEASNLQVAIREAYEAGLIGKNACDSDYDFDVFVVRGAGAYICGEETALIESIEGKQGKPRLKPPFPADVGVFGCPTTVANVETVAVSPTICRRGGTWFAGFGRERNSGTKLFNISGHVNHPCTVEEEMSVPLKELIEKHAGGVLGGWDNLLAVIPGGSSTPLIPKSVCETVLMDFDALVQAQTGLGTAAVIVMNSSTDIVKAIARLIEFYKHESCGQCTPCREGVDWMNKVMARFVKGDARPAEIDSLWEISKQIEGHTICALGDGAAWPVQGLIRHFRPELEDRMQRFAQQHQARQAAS

GPDH ([1]; Table 8) | GPDH ([1]; Table 9) | SDH ([5]; Table 8) | SDH ([5]; Table 9) | IIIQO [6, 9] | inhibition ([1]; Table 7) | inhibition at 2.5 µM [6, 13] | inhibition at 2.5 µM [6, 14] | inhibition at 2.5 µM ([5]; Table 7) | Structure (SMILES) | ΔΨm ([2]; Table 8, glutamate) | ΔΨm ([2]; Table 9, glutamate) | IF [3, 9] | IF [3, 10] | IQ ([4]; Table 7) | IQ ([4]; Table 8) | IQ ([4]; Table 9) | inhibition at 2.5 µM [3, 11] | inhibition at 2.5 µM [3, 12] | effect on ΔΨm [7] | other results
−0.6 | −0.6 | 1.2 | 1.2 | −32.1 | 0.6% | 32.1% | 32.1% | -1.2% | CC1=CC(C)(C)N(Cc2ccc([N+](=O)[O-])cc2)c2ccccc21 [Compound 37] | 1.5 | 1.5 | 0.6 | 0.6 | 0.3 | 0.3 | 0.3 |  | -0.6% |  | inhibition at 2.5 µM [6, 15]: 32.1%
−14.1 | −14.1 | 1.3 | 1.3 | 0.0 | 14.1% | 0% | 0% | -1.3% | O=C(O)CSc1cccc(C(=O)Nc2ccc(Br)cc2)c1 [Compound 47] | 0.0 | 0.0 | −0.5 | −0.5 | −0.1 | −0.1 | −0.1 |  | 0.5% |  | inhibition at 2.5 µM [1]: 14.1%
 |  |  |  |  | 3.8% | 2.4% |  | 4.5% | O=C(O)CCC(=O)Nc1ccc(-c2nc3cc4ccccc4cc3[nH]2)cc1 [Compound 61] |  |  |  |  | −17.1 |  |  |  | 4.8% | increased off-target effect on ΔΨm in the absence of nigericin | inhibition at 2.5 µM [1]: 48.3%

More lines, now with the values behind:

Structure (SMILES) | GPDH ([1]; Table 8) | GPDH ([1]; Table 9) | SDH ([5]; Table 8) | SDH ([5]; Table 9) | IIIQO [6, 9] | inhibition ([1]; Table 7) | inhibition at 2.5 µM [6, 13] | inhibition at 2.5 µM [6, 14] | inhibition at 2.5 µM ([5]; Table 7) | ΔΨm ([2]; Table 8, glutamate) | ΔΨm ([2]; Table 9, glutamate) | IF [3, 9] | IF [3, 10] | IQ ([4]; Table 7) | IQ ([4]; Table 8) | IQ ([4]; Table 9) | inhibition at 2.5 µM [3, 11] | inhibition at 2.5 µM [3, 12] | effect on ΔΨm [7] | other results
O=[N+]([O-])c1ccc(Oc2ccc(S(=O)(=O)NC3CCCCC3)cc2)cc1 [Compound 4] | 2.8 | 2.8 | 0.8 | 0.8 | −0.3 |  |  |  |  | −0.9 | −0.9 | 3.1 | 3.1 | −47.9 | −47.9 | −47.9 |  |  |  | GPDH ([1]; Table 7): 2.8; IF [3, 8]: 3.1; % Reduction in ROS production (IQ) ([4]; Table 2, 5 mM succinate, compounds 2.5 μM, percent change from DMSO, positive control −100%): −47.9%; SDH ([5]; Table 7): 0.8; IIIQO [6, 8]: −0.3; IIIQO [6, 10]: −0.3
O=C(O)C1CCCCC1C(=O)NC1CCCCC1 (stereo not drawn) [Compound 19] | −1.0 | −1.0 |  |  | 1.2 | 1% | -1.2% | -1.2% |  | −1.4 | −1.4 | −25.6 | −25.6 | 0.0 | 0.0 | 0.0 | 25.6% | 25.6% |  | 
COc1cc(CN(CCN(C)C)Cc2ccccc2)cc(OC)c1 [Compound 31] | 0.5 | 0.5 | −6.0 | −6.0 | −1.4 | -0.5% | 1.4% | 1.4% | 6% | 0.3 | 0.3 | −7.6 | −7.6 | −1.4 | −1.4 | −1.4 | 7.6% | 7.6% |  | 
Cc1ccc(C)c(CN(CCCN(C)C)CCCN(C)C)c1 [Compound 32] | 0.2 | 0.2 | −6.8 | −6.8 | 2.5 | -0.2% | -2.5% | -2.5% | 6.8% | −0.2 | −0.2 | −28.8 | −28.8 | −0.6 | −0.6 | −0.6 | 28.8% | 28.8% | without any significant effects on membrane potential | 
COc1ccc(Cl)cc1N(Cc1ccccc1)Cc1ccccc1 [Compound 34] | −4.0 | −4.0 | 3.9 | 3.9 | −49.4 | 4% | 49.4% | 49.4% | -3.9% | 3.4 | 3.4 | 5.6 | 5.6 | 4.0 | 4.0 | 4.0 |  | -5.6% | a consistent increase in ΔΨm was observed independent of both substrate and ΔpH at 8 μM; also recorded: increases ΔΨm at 8 μM but collapses ΔΨm above this concentration | inhibition at 2.5 µM [6, 15]: 49.4%
